ChEMBL document CHEMBL4806956, “1-heteroaryl-indoline-4-carboxamides as modulators of gpr52 useful for the treatment or prevention of disorders related thereto” (2020)
Calls of active or inactive are those of the source. The rule behind the calls is not given here.

What was measured:
[1] = molecular target: G-protein coupled receptor 52 (Mus musculus) (UniProt P0C5J4); assay: In vivo agonist activity at GPR52 in C57BL/6 mouse assessed as inhibition of basal locomotor activity at 10 mg/kg, po measured for 60 mins starting at 15 mins post-drug challenge; assay type: functional, organism-based; settings: time 75.0 min
[2] = molecular target: G-protein coupled receptor 52 (Mus musculus) (UniProt P0C5J4); assay: In vivo agonist activity at GPR52 in po dosed C57BL/6 mouse assessed as inhibition of basal locomotor activity measured for 60 mins starting at 15 mins post-drug challenge; assay type: functional, organism-based; settings: time 75.0 min
[3] = test system: Rattus norvegicus; assay: Antipsychotic activity in Sprague-Dawley rat assessed as inhibition of amphetamine-stimulated locomotor activity at 0.5 to 20 mg/kg, po administered 15 mins prior to amphetamine stimulation and measured for 30 to 60 mins post-drug dosage; assay type: functional, organism-based; settings: dose 0.5-20 mg/kg, time 30-60 min
[4] = Toxicity in Sprague-Dawley rat assessed as inhibition of basal locomotor activity at 20 mg/kg, po; assay type: organism-based; settings: in vivo
[5] = test system: Rattus norvegicus; assay: Antipsychotic activity in Sprague-Dawley rat assessed as inhibition of amphetamine-induced disruption of prepulse inhibition at 5 to 20 mg/kg, po administered 15 mins prior to amphetamine challenge and measured after 15 mins; assay type: functional, organism-based; settings: dose 5-20 mg/kg, time 30.0 min
[6] = test system: Rattus norvegicus; assay: Antipsychotic activity in Sprague-Dawley rat assessed as inhibition of MK801-induced disruption of prepulse inhibition at 5 to 20 mg/kg, po administered 15 mins prior to […] and measured after 15 mins; assay type: functional, organism-based; settings: dose 5-20 mg/kg, time 30.0 min
[7] = test system: Mus musculus; assay: Increase in PPI in 129Sv/Ev mouse with low PPI at 10 mg/kg, po measured after 30 mins; assay type: functional, organism-based
[8] = test system: Mus musculus; assay: Antipsychotic activity in 129Sv/Ev mouse assessed as inhibition of MK801-induced disruption of prepulse inhibition at 10 mg/kg, po co-administered with haloperidol at 15 mins prior to MK801 challenge and measured after 15 mins; assay type: functional, organism-based; settings: time 30.0 min
[9] = Induction of catalepsy in Sprague-Dawley rat assessed as increase in latency to move both forepaws at 5 to 100 mg/kg, po measured after 45 mins; assay type: organism-based; settings: in vivo, 0.75 h, dose 5-100 mg/kg
[10] = Induction of hyperprolactinemia in Sprague-Dawley rat assessed as increase in prolactin release in plasma at 1 to 100 mg/kg, po measured after 60 mins by ELISA; assay type: organism-based; settings: in vivo, 1 h, dose 1-100 mg/kg
[11] = test system: Rattus norvegicus; assay: Inhibition of haloperidol-induced hyperprolactinemia in Sprague-Dawley rat assessed as reduction in prolactin release in plasma at 10 mg/kg, po administered 30 mins prior to 0.3 mg/kg haloperidol challenge and measured after 60 mins by ELISA; assay type: functional, organism-based; settings: time 90.0 min
[12] = Ratio of drug level in brain to plasma in C57BL/6 mouse at 3 mg/kg, po measured after 60 mins by LC/MS/MS analysis; assay type: ADME, organism-based; settings: brain and plasma, read-out: BPR
[13] = Ratio of drug level in brain to plasma in C57BL/6 mouse at 10 mg/kg, po measured after 60 mins by LC/MS/MS analysis; assay type: ADME, organism-based; settings: brain and plasma, read-out: BPR
[14] = Induction of catalepsy in Sprague-Dawley rat assessed as increase in latency to move both forepaws at 0.1 to 1 mg/kg, sc measured after 45 mins; assay type: organism-based; settings: in vivo, 0.75 h, dose 0.1-1 mg/kg
[15] = Induction of hyperprolactinemia in Sprague-Dawley rat assessed as increase in prolactin release in plasma at 0.1 to 1 mg/kg, po measured after 60 mins by ELISA; assay type: organism-based; settings: in vivo, 1 h, dose 0.1-1 mg/kg

G-protein coupled receptor 52 (Mus musculus), sequence (P0C5J4 whole entry): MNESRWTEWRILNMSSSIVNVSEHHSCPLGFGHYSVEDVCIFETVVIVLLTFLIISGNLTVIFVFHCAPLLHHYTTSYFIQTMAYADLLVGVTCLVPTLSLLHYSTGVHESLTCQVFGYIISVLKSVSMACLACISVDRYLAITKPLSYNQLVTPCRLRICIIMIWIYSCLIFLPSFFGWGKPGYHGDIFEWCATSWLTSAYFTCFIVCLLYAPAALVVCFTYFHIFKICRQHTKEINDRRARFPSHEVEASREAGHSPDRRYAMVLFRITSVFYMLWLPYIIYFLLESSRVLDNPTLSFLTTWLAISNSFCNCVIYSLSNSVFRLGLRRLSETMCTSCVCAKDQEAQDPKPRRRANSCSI

In the case of `COc1ccc(Cc2ccnc(N3CCc4c3ccc(F)c4C(=O)NC[C@@H](F)CO)c2)cc1F`, the inhibition [1] is reported as 62%.

With `O=C(NCCO)c1cccc2c1CCN2c1cc(Cc2cccc(C(F)(F)F)c2)ccn1` the ED50 [2] was 2.7 mg/kg, the inhibition [1] was 70% and the Activity [3] was “Active”. The Activity [4] was “Toxic”, the Activity [5] was “Active” and the Activity [6] was “Active”. For the same molecule, the Activity [7] was “Active”, the Activity [8] was “Active” and the Activity [9] was “Non-Toxic”. The Activity [10] was “Non-Toxic”, the inhibition [11] was “Active” and the Kp at 1 h [12] was 3.51.

With `NC(=O)c1cccc2c1CCN2c1cc(Cc2ccc(F)c(C(F)(F)F)c2)ccn1` the inhibition [1] was 61%.

Molecule `NC(=O)c1cccc2c1CCN2c1cc(Cc2cccc(C(F)(F)F)c2)ccn1` has a Kp at 1 h [12] of 4.49.

In the case of `O=C(NCCO)c1cccc2c1CCN2c1cc(Cc2cc(F)c(F)c(F)c2)ccn1`, the inhibition [1] is reported as 65% and the Kp at 1 h [13] is reported as 3.

Molecule `NC(=O)c1cccc2c1CCN2c1cc(Cc2cc(F)cc(Cl)c2)ccn1` has a Kp at 1 h [13] of 12.4.

For `CC(=O)c1cccc(Cc2ccnc(N3CCc4c(C(N)=O)cccc43)c2)c1`, the inhibition [1] was 72% and the Kp at 1 h [13] was 1.36.

For `O=C(NCCO)c1cccc2c1CCN2c1cc(Cc2cc(F)cc(Cl)c2)ccn1`, the inhibition [1] was 79% and the Kp at 1 h [13] was 5.45.

With `O=C(NCCO)c1c(F)ccc2c1CCN2c1cc(Cc2cccc(C(F)(F)F)c2)ccn1` the Kp at 1 h [13] was 1.67.

For `COc1ccc(Cc2ccnc(N3CCc4c(C(=O)NC[C@@H](F)CO)cccc43)c2)cc1F`, the inhibition [1] was 67%.

With `COc1ccc(Cc2ccnc(N3CCc4c(C(N)=O)cccc43)c2)cc1F` the inhibition [1] was 66% and the Kp at 1 h [13] was 6.32.

For `COc1ccc(Cc2ccnc(N3CCc4c(C(=O)NCCO)cccc43)c2)cc1F`, the Kp at 1 h [13] was 0.87.

`NC(=O)c1cccc2c1CCN2c1cc(Cc2cncc(C(F)(F)F)c2)ccn1` gave a Kp at 1 h [13] of 4.67.

`C[C@@H](O)CNC(=O)c1cccc2c1CCN2c1cc(Cc2cc(F)c(F)c(F)c2)ccn1` gave an inhibition [1] of 68%.

For `O=C(NC[C@@H](F)CO)c1cccc2c1CCN2c1cc(Cc2cc(F)c(F)c(F)c2)ccn1`, the inhibition [1] was 70% and the Kp at 1 h [13] was 2.85.

In the case of `O=C(CCCN1CCC(O)(c2ccc(Cl)cc2)CC1)c1ccc(F)cc1` [HALOPERIDOL], the Activity [14] is reported as “Toxic” and the Activity [15] is reported as “Toxic”.

`NC(=O)c1cccc2c1CCN2c1cc(Cc2ccc(F)c(Cl)c2)ccn1` gave a Kp at 1 h [13] of 7.76.

For `NC(=O)c1cccc2c1CCN2c1cc(Cc2ccc3occc3c2)ccn1`, the inhibition [1] was 81%.

Work on `COC[C@@H](O)CNC(=O)c1cccc2c1CCN2c1cc(Cc2cc(F)c(F)c(F)c2)ccn1` yielded an inhibition [1] of 72%.

With `O=C(NC1CCN(CCO)CC1)c1cccc2c1CCN2c1cc(Cc2ccc3c(c2)CCO3)ccn1` the Kp at 1 h [13] was 0.16.

For `O=C(NCCO)c1c(F)ccc2c1CCN2c1cc(Cc2cc(F)c(F)c(F)c2)ccn1`, the inhibition [1] was 68%.
